This is an account of results in patent publication US8093258B2, “Use of urokinase inhibitors for the treatment and/or prevention of neuropathological diseases” (Wilex AG, priority 2005, dated 2012).

One experiment has as its system ALS. The following applies: ALS treatment with riluzole; cited from earlier work.
Another experiment deals with FALS mice (G93A). Description: Treatment of G93A FALS mice with uPA inhibitor WX-C340 (survival analysis, disease progression). The experiment is classed as in vivo. To be noted: 10 mg WX-C340 i.p. daily. The protocol:
Kaplan-Meyer-Analysis, G93A-ALS-model: Comparison of the survival of control group animals (N=42) with animals treated with 10 mg/kg WX-C340 i.p. Daily (treatment start day 30, n=18).
FALS mice (G93A) begin to show behavioral symptoms at about 90 days of age while G85R mice develop symptoms at about 8 months of age. The initial symptoms is a high frequency resting tremor. This progresses to gait abnormalities and uncoordinated movements. Later the mice begin to show paralysis of the hind limbs, eventually progressing to paralysis of the forelimbs and finally to complete paralysis. Animals were sacrificed when they were unable to roll over within 10 seconds of being pushed on their side. This time point is taken as the time of death.

For `Nc1nc2ccc(OC(F)(F)F)cc2s1` [riluzole], in the experiment on ALS, the prolongation of life result was “ca. 3 months”.
On to `Cl.N=C(N)Nc1ccc(CNC(=O)CNC(=O)[C@@H](CO)NS(=O)(=O)Cc2ccc(Cl)cc2)cc1` [WX-C340, 4-chlorobenzyl-sulfonyl-(D)-Ser-Gly-(4-guanidinobenzyl)amide hydrochloride], for which, in the experiment on FALS mice (G93A), the “progression of disease (onset of paralysis of the front legs)” value is listed as “delays the progression of disease”. Further, in the experiment on FALS mice (G93A) (treatment start day 30, versus control group), the “survival of the animals (Kaplan-Meyer analysis, FIG. 4)” value is listed as “significantly improves the survival”.
